{"source": "a melting point compilation (Tetko et al.; mined from patent text by program, amines drawn as free bases though some values may be those of a salt)", "data": [{"units": {"melting point": "°C"}, "values": [{"smiles": "CCOC1OC(O)C(F)(F)C(F)(F)C1(F)F", "note": "(stereo not drawn)", "melting point": "84 to 86"}, {"smiles": "CCSc1nc(NC(C)=O)ccc1[N+](=O)[O-]", "melting point": 168}, {"smiles": "Cc1ccccc1-c1cccc(Nc2ccccc2)c1C#N", "melting point": "125 to 126"}, {"smiles": "O=C1CCCc2ncccc2N1", "melting point": "156 to 159"}, {"smiles": "CCOC(=O)c1cc([N+](=O)[O-])cn1CCC(C)C", "melting point": "46 to 47"}, {"smiles": "CCCCc1ncc([N+](=O)[O-])c(O)n1", "melting point": "67 to 69"}, {"smiles": "Cc1nc2sccn2c(=O)c1CCN1CCC(=C(c2ccc(F)cc2)c2ccc(F)cc2)CC1", "melting point": 146}, {"smiles": "C=CCC(CC1CC2CCN1CC2)(c1ccccc1)c1ccccc1", "note": "(stereo not drawn)", "melting point": "95.5 to 98"}, {"smiles": "CSc1nc(=O)n(C(C)(C)C)c(=O)[nH]1", "melting point": "112 to 115"}, {"smiles": "O=c1nc(N2CCCc3c(Br)cccc32)sc2ncccc12", "melting point": "173 to 174"}, {"smiles": "CN1CC(CNCCC#N)CC2c3cccc4[nH]cc(c34)CC21", "note": "(stereo not drawn)", "melting point": "169 to 171"}, {"smiles": "O=S(=O)(c1ccc(S(=O)(=O)C2CCCCC2)nc1)C1CCCCC1", "melting point": 213}, {"smiles": "CC(=O)c1c(-c2ccc(F)cc2)[nH]c(-c2ccncc2)c1C", "melting point": "202 to 203"}, {"smiles": "COc1cc(Nc2c(C#N)cnc3sc(CCCCO)cc23)cc(OC)c1OC", "melting point": "125 to 127"}, {"smiles": "CC(C)(C)OC(=O)NCC(=O)Nc1c(C(=O)CC(=O)Nc2nccs2)cccc1C(F)(F)F", "melting point": 166}, {"smiles": "O=C1NC(=O)C(Nc2ccc(CCNCC(O)COc3ccc4ccccc4c3)cc2)S1", "note": "(stereo not drawn)", "melting point": "90 to 91"}, {"smiles": "CSC(=NC#N)N(C)N=Cc1ccccc1", "melting point": "132 to 133"}, {"smiles": "O=C(Nc1ccc(C(=O)N2CCC=Cc3ccccc32)cc1)c1ccccc1Cl", "melting point": "205 to 207"}, {"smiles": "Cc1ccc(S(=O)(=O)n2ccc3c(OCC4CO4)cccc32)cc1", "note": "(stereo not drawn)", "melting point": "109 to 112"}, {"smiles": "N#Cc1ccc(Oc2nccc(-c3c(-c4ccc(F)cc4)ncn3C3CCNCC3)n2)cc1", "melting point": "192 to 193"}, {"smiles": "Oc1ccc(Oc2ccc(C(F)(F)F)cc2Cl)cc1", "melting point": "55 to 56"}, {"smiles": "C=CCC1(C(=O)NCc2ccccn2)c2ccccc2-c2ccccc21", "melting point": "110 to 111"}, {"smiles": "COc1cc(C(C)C)c2c(c1)S(=O)(=O)N(COP(=O)(OCc1ccccc1)OCc1ccccc1)C2=O", "melting point": "75.5 to 76.5"}, {"smiles": "Cc1ccc(OC(=O)N2CCC[C@H]2C(=O)O)cc1", "melting point": "76 to 77"}, {"smiles": "N#Cc1ccc(-c2cccc(C=O)c2)cc1", "melting point": "122 to 123"}, {"smiles": "CCOC(=O)c1sc(Cl)nc1-c1ccc(Cl)cc1", "melting point": "119 to 120"}, {"smiles": "CCCCCCCCCCCCCCCCCCOc1ccc(C(=O)C(=O)N(CC(=O)O)CC(=O)O)cc1", "melting point": "130 to 132"}, {"smiles": "Cc1cccc([C@H]2[C@H](C(=O)Nc3ccc(F)c(F)c3)C2(C)C)c1", "note": "(relative stereo)", "melting point": "110 to 113"}, {"smiles": "COC(=O)Cc1cc2c(s1)NC(=S)C(C)N=C2c1ccccc1Cl", "note": "(stereo not drawn)", "melting point": "196 to 197"}, {"smiles": "C[C@@H](Nc1ncnc2[nH]c(-c3ccc(CNC(=O)CN4CCCCC4)cc3)cc12)c1ccccc1", "melting point": "194 to 196"}, {"smiles": "CON=CC(C)(C)NC(=O)c1c(Cl)cccc1C(=O)Nc1ccc(OC(F)(F)F)cc1C", "melting point": 197}, {"smiles": "CCCCc1nc(Cl)c(C(=O)O)n1Cc1ccc2oc(-c3ccccc3-c3nnn[nH]3)c(OC)c2c1", "melting point": "140 to 144"}, {"smiles": "CCc1ccc(-c2ccc(I)cc2)cc1", "melting point": "145 to 149"}, {"smiles": "CC1(C)CCOc2c(C(O)C#Cc3ccc(C(=O)O)c(O)c3)cccc21", "note": "(stereo not drawn)", "melting point": "225 to 227"}, {"smiles": "COc1ccc2c(C(=S)N(C)CC(N)=O)c(F)ccc2c1C(F)(F)F", "melting point": "222 to 224"}, {"smiles": "COC(=O)C1Cc2c(ncn2Cc2ccc(N)c(C)c2)CN1C(=O)C(c1ccccc1)c1ccccc1", "note": "(stereo not drawn)", "melting point": "182 to 188"}, {"smiles": "COc1cccc(C#Cc2ccccc2)c1", "melting point": 70}, {"smiles": "COc1cc(N)c2nccc(C)c2c1OCCCCCc1ccccc1", "melting point": "65 to 66"}, {"smiles": "CNC(c1ccc(OC)cc1)c1csc(S(N)(=O)=O)c1", "note": "(stereo not drawn)", "melting point": "155 to 156"}, {"smiles": "Cn1cc(Br)c(=O)c(-c2cccc(C(F)(F)F)c2)c1", "melting point": "167 to 169"}, {"smiles": "O=C(Nc1c[nH]nc1C(=O)NCCc1ccc(Br)cc1)c1ccccn1", "melting point": "266 to 270"}, {"smiles": "C#Cc1ccc(C(=C2CC(C)(C)CC(C)(C)C2)c2ccc(O)cc2)cc1", "melting point": "138 to 139"}, {"smiles": "C=CCc1cc2c(c(CC=C)c1O)CCC(=O)N2CCCNC(=O)CCl", "melting point": "152 to 154"}, {"smiles": "CCN(CC)C(=O)CNc1cc(N)ccc1OC", "melting point": 111}, {"smiles": "O=C(NCCO)c1cnc(NCCO)cc1Nc1ccc(I)cc1F", "melting point": "> 250"}, {"smiles": "Cc1ccc(Oc2ccc(-c3ccccc3)cc2)cc1", "melting point": "97 to 99"}, {"smiles": "O=[N+]([O-])c1cnn(CC(O)CCl)n1", "note": "(stereo not drawn)", "melting point": "38 to 38.5"}, {"smiles": "CCOCc1nc2c(N)nc3ccccc3c2n1CC1(O)CCC2(CC1)OCCO2", "melting point": "207 to 209"}, {"smiles": "COC(C)c1cc([N+](=O)[O-])ccc1C", "note": "(stereo not drawn)", "melting point": "35 to 37"}, {"smiles": "O=C(OCc1cc(F)nc(F)c1)c1ccccc1", "melting point": "83 to 84"}, {"smiles": "CCOCc1nnc(C)n1-c1ccc(Cl)cc1C(=O)O", "melting point": "173 to 176"}, {"smiles": "COCCC(=O)OCC(=O)C1(O)CCC2C3CC(C)C4=CC(=O)C=CC4(C)C3C(O)CC21C", "note": "(stereo not drawn)", "melting point": 230}, {"smiles": "CCOC(=O)C(CC(=O)c1ccccc1C(F)(F)F)(NC(C)=O)C(=O)OCC", "melting point": "104 to 105"}, {"smiles": "Cn1c(=O)c2c(ncn2CC(O)COC(=O)COc2ccc(Cl)cc2)n(C)c1=O", "note": "(stereo not drawn)", "melting point": "81 to 83"}, {"smiles": "OCC(O)Cc1ncc[nH]1", "note": "(stereo not drawn)", "melting point": "98 to 100"}, {"smiles": "O=C(O)Cc1nn(Cc2ccc(Br)cc2)c(=O)c2ccccc12", "melting point": "179 to 181"}, {"smiles": "c1ccc(C(c2ccccc2)N2CCN(CCCCCCNc3ccc4nncn4n3)CC2)cc1", "melting point": "133 to 139"}, {"smiles": "Cn1c(COc2ccc(CC3SC(=O)N(C(c4ccccc4)(c4ccccc4)c4ccccc4)C3=O)cc2)nc2ccc(Sc3ccccc3)nc21", "note": "(stereo not drawn)", "melting point": "90 to 95"}, {"smiles": "Cc1[nH]cnc1CSCCNC1=C([N+](=O)[O-])CN(Cc2ccccc2)CN1", "melting point": "177 to 180"}, {"smiles": "CC(C)(C)NCC(O)COc1cccc2[nH]cc(Cl)c12", "note": "(stereo not drawn)", "melting point": "95 to 97"}, {"smiles": "CCOC(=O)C(C)(C)n1c(=O)[nH]c2ccc(Cl)cc2c1=O", "melting point": "179 to 180"}, {"smiles": "COc1ccc(-c2nc(C(=O)c3ccc([N+](=O)[O-])c(OC)c3)n3ccccc23)cc1", "melting point": 185}, {"smiles": "O=C(O)[C@H](CCc1ccccc1)Oc1ccc(-c2ccco2)cc1", "melting point": "140 to 142"}, {"smiles": "C=S1C(=NC(F)(F)F)C(=NC(F)(F)F)N(c2ccccc2)C1C(C)=O", "note": "(stereo not drawn)", "melting point": "189 to 191"}, {"smiles": "Cc1c(O)c(C(C)(C)C)cc2c1CCC1C2CCC2(C)C(=O)CCC12", "note": "(stereo not drawn)", "melting point": "190 to 192"}, {"smiles": "COC(=O)Cc1cc(OC)ccc1C(C)=O", "melting point": "74 to 76"}, {"smiles": "O=C1Cc2cc(C(=O)N3CCN(C(=O)c4ccccc4)CC3)ccc2N1", "melting point": "268 to 270"}, {"smiles": "CS(=O)(=O)c1ccc(-c2nnc(Cl)cc2-c2ccc(Cl)cc2)cc1", "melting point": 190}, {"smiles": "N#Cc1c(Cl)n(C2OC(CF)C(O)C2O)c2cc(Cl)c(Cl)cc12", "note": "(stereo not drawn)", "melting point": "246 to 247"}, {"smiles": "Oc1nc(Cc2ccccc2)nc(O)c1-c1ccccc1", "melting point": 337}, {"smiles": "CC(C)(O)c1ccc(-c2cnc3[nH]c(=O)n(CC4CCOCC4)c3n2)cc1", "melting point": "212 to 214"}, {"smiles": "O=C1N[C@H]2OC=N[C@@]12c1ccccc1", "melting point": "159 to 160"}, {"smiles": "CCOC(=O)CC[C@H](NC(=O)c1ccc(CCc2cnc3nc(NC(=O)C(C)(C)C)nc(O)c3c2)cc1)C(=O)OCC", "melting point": "> 250"}, {"smiles": "O=C(O)c1cc(-n2c(-c3ccccc3)cc3c2CCCC3)ccc1O", "melting point": "209 to 211"}, {"smiles": "Cc1nc(C(N)=O)c2n1-c1ccc(Cl)cc1C(c1ccccc1F)=NC2", "melting point": "300 to 305"}, {"smiles": "O=C1N(Cc2ccccn2)c2ccccc2C12COc1cc3c(cc12)OCCCO3", "note": "(stereo not drawn)", "melting point": "122 to 123"}, {"smiles": "Cc1cc(S(C)(=O)=O)c(S(C)(=O)=O)cc1C(=O)N=C(N)N", "melting point": "> 240"}, {"smiles": "COC(c1cc(C)no1)c1ccccc1COc1cc(Cl)ccc1Cl", "note": "(stereo not drawn)", "melting point": "78.5 to 79.5"}, {"smiles": "O=C1OC(=O)C2CC3=C(CC3)CC12", "note": "(stereo not drawn)", "melting point": "81 to 83"}, {"smiles": "COC(=O)c1ccsc1S(=O)(=O)Cl", "melting point": "51 to 54"}, {"smiles": "OCC1OC(n2cnc3c(NC4CCCCC4O)ncnc32)C(O)C1O", "note": "(stereo not drawn)", "melting point": "210 to 211"}, {"smiles": "Cc1cccc(COc2cccc(OCc3coc(C4CCCCC4)n3)c2)c1C(=O)O", "melting point": "158 to 159"}, {"smiles": "COC(=O)C(Cl)=Cc1cc(N)ccc1Cl", "melting point": "104 to 105"}, {"smiles": "COC(=O)c1c(Br)ccc2nn(C)cc12", "melting point": "103 to 104"}, {"smiles": "CC(=O)c1nn(-c2c(Cl)cc(C(F)(F)F)cc2Cl)c(NSC(F)(F)F)c1S(C)=O", "note": "(stereo not drawn)", "melting point": "67 to 102"}, {"smiles": "CCC(C)(Oc1ccc(-c2ccccc2)cc1OC)C(=O)O", "note": "(stereo not drawn)", "melting point": "50 to 55"}, {"smiles": "CC(=O)SCC(Cc1ccccc1)C(=O)Nc1ccc(C(=O)O)cc1", "note": "(stereo not drawn)", "melting point": "187 to 189"}, {"smiles": "CCOC(=O)c1c(NC2CC(C)(C)NC(C)(C)C2)cc(C)nc1C", "melting point": "89 to 90"}, {"smiles": "Cc1ccc(CN2Cc3cncn3C(c3ccc(C#N)cc3)C2=O)cc1", "note": "(stereo not drawn)", "melting point": "168 to 170"}, {"smiles": "CC(C)n1nc(-c2nc(Br)c(N)nc2-c2ccccc2)ccc1=O", "melting point": "204 to 206"}, {"smiles": "CCn1c2cc(C)ccc2c2c3ccccc3ccc21", "melting point": "123 to 124"}, {"smiles": "CCC(O)CN1N=C(c2ccc(Cl)cc2)C2CCC2C1=O", "note": "(stereo not drawn)", "melting point": "116 to 119"}, {"smiles": "OCc1cnc2cc(F)ccc2c1O", "melting point": "295 to 300"}, {"smiles": "COc1ccc2cc(-c3cnc(-c4cn(C)c5ccccc45)o3)ccc2c1", "melting point": "187 to 189"}, {"smiles": "CC(=O)n1cc(-c2cccc(Cl)c2Cl)c(C(F)(F)F)c1", "melting point": "65 to 66"}, {"smiles": "O=C1NCCc2c(O)cccc21", "melting point": "195 to 198"}, {"smiles": "CC(C)(C)C(O)C(=CC1CCCCC1)n1cncn1", "note": "(stereo not drawn)", "melting point": "145 to 148"}, {"smiles": "NNC1=NS(=O)(=O)c2cnccc2N1", "melting point": "290 to 292"}, {"smiles": "Cc1nnc2n1-c1ccc(N)cc1C(c1ccccc1Cl)=CC2", "melting point": "271 to 273"}, {"smiles": "Cc1ccc([C@H]2O[C@@H]2C(N)=O)cc1", "melting point": "183 to 185"}, {"smiles": "CCn1c(=O)c(NC(=O)Nc2ccc(F)cc2F)c(-c2ccccc2Cl)c2cc(C)cc(C)c21", "melting point": "186 to 188"}, {"smiles": "COc1cc(C(=O)N2CCC(CCN3CCC(Nc4nc5ccccc5n4Cc4ccccn4)CC3)(c3ccc(F)c(F)c3)C2)cc(OC)c1OC", "note": "(stereo not drawn)", "melting point": "101 to 107"}, {"smiles": "COc1ccc(F)c2c(OC)c(C=O)ccc12", "melting point": "129 to 131"}]}]}
